From patent US20220304957A1, “ANTI-CANCER COMPOSITIONS AND METHODS OF USE” (Board of Supervisors of Louisiana State University and …, priority 2019, published 2022)
Read-outs that look alike come from different tables or passages of the source.

Experiments:
[1] = system: PPAR responsive elements (PPRE); experiment: PPAR luciferase assay (PPRE reporter) in HepG2 cells; type: cell-based; conditions: 25 μM, 24 hrs
Description: Aliquots of 50 μM PP1 and FF in DMSO were added to 500 μl to heparinized human blood to a final concentration of 50 μM. Following incubation at 37° C. for the indicated time points, the samples were frozen at −80° C., and later prepared for HPLC-based detection of the compounds. Please note that FF is converted to FA in the presence of human blood. […] Data represent average values with standard deviation (n=3). panel B: Water solubility. FF and PP1, were added to water to a final concentration of 50 mM and sonicated in an ultrasonic bath (Branson 1510 Digital Heated Ultrasonic bath) for one hour at room temperature. The samples were then centrifuged for 10 minutes at 16000×g, and the supernatant filtered through 0.45 μm syringe filter. Water solubilized PP1 and FF were subsequently processed for HPLC analysis (see Methods). Data represent average values with standard deviation (n=3). panel C: Effects of PP compounds on PPAR responsive elements (PPRE). The PPAR transcriptional activity was determined in HepG2 cells by the JsTkpGL3 reporter plasmid, which contains a firefly luciferase gene driven by the PPRE, which consists of three copies of the J site from the apo-AII gene promoter. To normalize for efficiency of transfection the cells were additionally transfected with the pSV40-GLuc (New England Biolabs, Ipswich, Mass.) control plasmid. […] The luciferase activity was detected with Dual-Luciferase reporter assay system (Promega, Madison, Wis.), and the resulting luminescence measured with Synergy 2 microplate reader (BioTek, Winooski, Vt.). Data represent average values with standard deviation (n=6).
PPAR Luciferase Assay—The PPAR transcriptional activity was determined by utilizing the JsTkpGL3 reporter plasmid, which contains a firefly luciferase gene driven by the PPAR responsive element (PPRE), which consists of three copies of the J site from the apo-AII gene promoter. Together with JsTkpGL3 plasmid HepG2 cells were transfected with pSV40-GLuc (New England Biolabs, Ipswich, Mass.) control plasmid expressing Gaussia luciferase under the control of the constitutive SV40 early promoter to normalize for efficiency of transfection. […] The luciferase activity was detected with Dual-Luciferase reporter assay system (Promega, Madison, Wis.), and the resulting luminescence measured with Synergy 2 microplate reader (BioTek, Winooski, Vt.).

[2] = system: LN-229 human glioblastoma cells; conditions: for % cell death: 72-/96-hour time points
[3] = system: LN229 human glioblastoma cell line; experiment: Cell viability (MTT assay), LN229; type: cell-based; conditions: MTT
[4] = system: intracranial GL-261 glioblastoma tumors; experiment: Intracranial GL-261-luc glioblastoma model, pathological evaluation of tumors; type: in vivo, C57BL/6 mice; conditions: 50 mg/kg/day oral, 14 days, large pre-existing tumors, n=3
Description: Panel A: PP1 accumulation in different tissues following oral administration of PP1 (25 mg/kg). C57BL/6 mice were treated daily for 14 days, and the levels of PP1 in the blood, liver, spleen, kidney, heart, brain and in brain tumors, were evaluated by HPLC, as previously described. Data represent average values with standard deviation (n=3). Panel B: Body weight of C57BL/6 mice treated with PP1. Mice were treated with the PP1 at doses ranging from 25 to 75 mg/kg/day administered by oral gavage. Following 7 and 14 days of daily drug administration both control (DMSO-treated) and experimental (PP1-treated) mice were weighted. Data represent average values with standard deviation (at least three mice per group were included). In Panels A and B, tumor free and tumor bearing mice were included for the body weight measurement. Panels C, D and E: Intracranial growth of GL-261-Luc cells. […] Tumor size is expressed as radiance (photons/s/cm2/sr) and was quantified with the Living Image 4.1 software according to the manufacturer's recommendations (Xenogen). […]
Animal studies—All described procedures involving experimental animals were performed in accordance to the IACUC protocol #3444 at LSUHSC, New Orleans. […] The resulting images were evaluated and luminescence measurements from equivalent regions of interest encompassing the entire skull were collected using Living Image 4.1 software (Xenogen). […]

[5] = Toxicity in mice: body weight and histopathology; type: in vivo, C57BL/6 mice; conditions: 14 days
Description: Panel A: PP1 accumulation in different tissues following oral administration of PP1 (25 mg/kg). C57BL/6 mice were treated daily for 14 days, and the levels of PP1 in the blood, liver, spleen, kidney, heart, brain and in brain tumors, were evaluated by HPLC, as previously described. Data represent average values with standard deviation (n=3). Panel B: Body weight of C57BL/6 mice treated with PP1. Mice were treated with the PP1 at doses ranging from 25 to 75 mg/kg/day administered by oral gavage. Following 7 and 14 days of daily drug administration both control (DMSO-treated) and experimental (PP1-treated) mice were weighted. Data represent average values with standard deviation (at least three mice per group were included). In Panels A and B, tumor free and tumor bearing mice were included for the body weight measurement. Panels C, D and E: Intracranial growth of GL-261-Luc cells. C57 black mice, 6-8 weeks of age were anesthetized with 4% isoflurane and secured in a stereotaxic head frame (Harvard Apparatus, Holliston Mass.). GL-261-luc cells (1×10^5 cells in 2 μl; PerkinElmer Inc.) were injected into the brain parenchyma (coordinates: 3 mm anterior to Bregma; 1.5 mm lateral to Sagital suture; 3 mm down from surface) through a burr hole in the skull using a 10 μl Hamilton syringe. Panel C: Mice with large intracranial tumors were selected using bioluminescence imaging with Xenogen IVIS 200 system. Tumor size is expressed as radiance (photons/s/cm2/sr) and was quantified with the Living Image 4.1 software according to the manufacturer's recommendations (Xenogen). Panels D and E: Pathological evaluation of intracranial tumors and tissues. Following 14 days of drug administration (control: DMSO administered daily by oral gavage; PP1 50 mg/kg administered daily by oral gavage) the animals were euthanized, and the following organs were collected: liver, kidneys, spleen, heart, intact brain and intracranial tumors. The tissues were formalin-fixed, paraffin-embedded, and the resulting thin section were stained with hematoxylin and eosin (H&E) for a routine pathological evaluation.
Animal studies—All described procedures involving experimental animals were performed in accordance to the IACUC protocol #3444 at LSUHSC, New Orleans. C57BL/6NHsd mice, 11-12 weeks of age (Envigo), were anesthetized with 4% isoflurane and secured in a stereotaxic head frame (Harvard Apparatus, Holliston Mass.). […] The resulting images were evaluated and luminescence measurements from equivalent regions of interest encompassing the entire skull were collected using Living Image 4.1 software (Xenogen). […]

[6] = mouse, in vivo; cited from earlier work

## CN(CCO)C(=O)C(C)(C)Oc1ccc(C(=O)c2ccc(Cl)cc2)cc1 [PP1, 2-[4-(4-chlorobenzoyl)phenoxy]-N-(2-hydroxyethyl)-N,2-dimethylpropanamide]
[1]
  effect on PPAR responsive elements (PPRE): attenuate
[2]; 5 μM
  % cell death: 74+/−3%
[2]; 10 μM
  % cell death: 92+/−2%
[2]; 25 and 50 μM, 72- and 96-hour time points
  cell death: extensive cell death
[2]; in vitro
  concentration triggering extensive glioblastoma cell death, fold lower than FF: ~5 fold
[3]; 1 μM
  CV = Cell viability (% of control): 98.36±1.61 % of control
[3]; 5 μM
  CV = Cell viability (% of control): 70.03±2.04 % of control
[3]; 10 μM
  CV = Cell viability (% of control): 43.67±1.88 % of control
[4]
  necrosis within the tumor mass: multiple large areas of necrotic tissue within the tumor mass
[5]; 25-75 mg/kg/day oral gavage, tumor-free and tumor bearing mice
  overall toxicity and body weight: did not show any signs of overall toxicity and maintained their body weight
[5]; oral gavage daily
  histology, heart, kidney and intact brain: did not show any signs of pathology
  histology, liver: inflammation and focal necrotic areas in the liver
  histology, spleen: enlarged spleen with accumulation of hemosiderin
[6]
  brain penetration, concentration: 5 µM
  estimated log BB (from experiment): zero
